We go through 29 compounds from patent US20050209278A1, “Piperidinyl- and piperazinyl-sulfonylmethyl hydroxamic acids and their use as protease inhibitors” (priority 2002, published 2005).

Assay [1] has as its target T1, MMP-1 (Homo sapiens, UniProt P03956).
T1 construct: made in house; host or cells: MMP-1-transfected HT-1080 cells (spent media)
T1 sequence (P03956 100-469): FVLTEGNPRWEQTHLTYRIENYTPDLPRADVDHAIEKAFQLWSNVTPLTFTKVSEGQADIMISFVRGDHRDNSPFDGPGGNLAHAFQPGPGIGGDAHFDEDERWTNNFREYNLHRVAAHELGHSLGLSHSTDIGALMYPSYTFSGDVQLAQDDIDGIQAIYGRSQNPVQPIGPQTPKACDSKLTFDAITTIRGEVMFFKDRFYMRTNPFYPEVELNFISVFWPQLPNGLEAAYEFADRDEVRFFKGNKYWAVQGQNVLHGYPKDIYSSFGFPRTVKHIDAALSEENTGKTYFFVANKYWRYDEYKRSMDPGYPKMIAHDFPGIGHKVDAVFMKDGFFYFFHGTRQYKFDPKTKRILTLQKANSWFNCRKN
In words: In vitro MMP inhibition, Ki determination (fluorogenic substrate II). As to conditions: value not in parenthesis; read-out: MMP-1 Ki. The class given is biochemical.

Assay [2] has as its target T2, MMP-13 (Homo sapiens, UniProt P45452).
T2 construct: made in house; host or cells: baculovirus / insect cells
The assay is described as above. As to conditions: value not in parenthesis; read-out: MMP-13 Ki. The assay is classed as biochemical. Put shortly:
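Room-temperature, 1 h incubation of APMA-activated recombinant human MMP-13 with 4 μM quenched substrate II (cleaved at Gly-Leu) in pH 7.5 Tris/NaCl/CaCl2 buffer. Inhibition appears as a slowed rise in 330/420 nm fluorescence. Single low enzyme and substrate levels were used for Ki.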

The structures appear in SMILES notation.

On to `CCCCc1ccc(N2CCN(S(=O)(=O)C(C)C(=O)NO)CC2)nc1` (stereo not shown) [Example 217], for which the Ki in assay [1] is greater than 10000 nM; in assay [2] it was 1.21 nM.

`O=C(NO)C1(S(=O)(=O)N2CCN(c3cnc(CCC(F)(F)F)cn3)CC2)CCOCC1` [Example 218]: the figures for the Ki in assay [1] and in assay [2] were greater than 10000 nM and 2.03 nM, respectively.

On to `CCCCCc1cnc(N2CCN(S(=O)(=O)C3(C(=O)NO)CCOCC3)CC2)cn1` [Example 219], for which the Ki in assay [1] was greater than 10000 nM; in assay [2], 1.11 nM.

Turning to `CCCCOc1ccc(N2CCN(S(=O)(=O)C3(C(=O)NO)CCN(c4ccc5c(c4)OCO5)CC3)CC2)cc1` [Example 221], the results for the inhibitory constant (Ki) in assay [1] and in assay [2] were greater than 10000 nM and 3.52 nM, respectively.

Take `CCCCOc1ccc(N2CCN(S(=O)(=O)C3(C(=O)NO)CCS(=O)(=O)CC3)CC2)cc1` [Example 222]: the Ki in assay [1] was greater than 10000 nM; in assay [2], 3.99 nM.

As to `CCCCOc1ccc(N2CCN(S(=O)(=O)C3(C(=O)NO)CCN(c4ccsc4)CC3)CC2)cc1` [Example 223], the Ki in assay [1] is greater than 10000 nM; in assay [2], 1.4 nM.

Regarding `CCCCOc1ccc(N2CCN(S(=O)(=O)C3(C(=O)NO)CCN(c4ccc(C#N)cc4)CC3)CC2)cc1` [Example 225], the Ki is greater than 10000 nM in assay [1] and 5.88 nM in assay [2].

Consider `CCCCOc1ccc(N2CCN(S(=O)(=O)C3(C(=O)NO)CCN(c4cccc(C)c4)CC3)CC2)cc1` [Example 226], for which the inhibition constant Ki was greater than 10000 nM in assay [1] and 4.38 nM in assay [2].

Consider `COCCSc1ccc(N2CCN(S(=O)(=O)C3(C(=O)NO)CCOCC3)CC2)cc1` [Example 227], for which the Ki in assay [1] was 9280 nM; in assay [2] it was 1.79 nM.

In the case of `CCCCOc1ccc(N2CCN(S(=O)(=O)C3(C(=O)NO)CCN(c4ccc(OC)c(OC)c4)CC3)CC2)cc1` [Example 229], the Ki was greater than 10000 nM in assay [1] and 1.01 nM in assay [2].

`CCCCOc1ccc(N2CCN(S(=O)(=O)C3(C(=O)NO)CCN(C(=O)N4CCN(C)CC4)CC3)CC2)cc1` [Example 230]: the Ki was greater than 10000 nM in assay [1] and 0.27 nM in assay [2].

Turning to `CCCCOc1ccc(N2CCN(S(=O)(=O)C3(C(=O)NO)CCN(C(=O)N4CCCC4)CC3)CC2)cc1` [Example 231], the Ki in assay [1] was greater than 10000 nM; in assay [2], 0.17 nM.

On to `CCCCOc1ccc(N2CCN(S(=O)(=O)C3(C(=O)NO)CCSCC3)CC2)cc1` [Example 232], for which the inhibition constant (Ki) in assay [1] is greater than 10000 nM; in assay [2], 0.56 nM.

On to `CCCCOc1ccc(N2CCN(S(=O)(=O)C3(C(=O)NO)CCN(CCN4CCOCC4)CC3)CC2)cc1` [Example 233], for which the Ki is greater than 10000 nM in assay [1] and 0.26 nM in assay [2].

In the case of `CCOCCSc1ccc(N2CCN(S(=O)(=O)C3(C(=O)NO)CCOCC3)CC2)cc1` [Example 234], the inhibition constant (Ki) was greater than 10000 nM in assay [1] and 1.61 nM in assay [2].

Regarding `CCCCOc1ccc(N2CCN(S(=O)(=O)C3(C(=O)NO)CCN(CCN(CC)CC)CC3)CC2)cc1` [Example 235], the results for the Ki in assay [1] and in assay [2] were greater than 10000 nM and 0.3 nM, respectively.

Take `CCCCCc1ccc(N2CCN(S(=O)(=O)C3(C(=O)NO)CCN(S(=O)(=O)N(C)C)CC3)CC2)cc1` [Example 236]: the Ki in assay [1] was greater than 10000 nM; in assay [2], 1.47 nM.

With `CCCCCc1ccc(N2CCN(S(=O)(=O)C3(C(=O)NO)CCN(S(C)(=O)=O)CC3)CC2)cc1` [Example 237], the figures for the Ki in assay [1] and in assay [2] were greater than 10000 nM and 1.69 nM, respectively.

For the compound `CCCCOc1ccc(N2CCN(S(=O)(=O)C3(C(=O)NO)CCN(CCCC(F)(F)F)CC3)CC2)cc1` [Example 238], the results for the Ki in assay [1] and in assay [2] were greater than 10000 nM and 0.53 nM, respectively.

Take `CCCCCc1ccc(N2CCN(S(=O)(=O)C3(C(=O)NO)CCN(C(C)=O)CC3)CC2)cc1` [Example 239]: the values for the Ki in assay [1] and in assay [2] were greater than 10000 nM and 0.37 nM, respectively.

For the compound `CCCCOc1ccc(N2CCN(S(=O)(=O)C3(C(=O)NO)CCN(C(=O)NC(C)(C)C)CC3)CC2)cc1` [Example 240], the Ki in assay [1] was greater than 10000 nM; in assay [2] it was 0.327 nM.

Regarding `CCCCOc1ccc(N2CCN(S(=O)(=O)C3(C(=O)NO)CCN(c4ccc(N(C)C)cc4)CC3)CC2)cc1` [Example 241], the Ki in assay [1] is greater than 10000 nM; in assay [2], 1.06 nM.

Take `CCCCOc1ccc(N2CCN(S(=O)(=O)C3(C(=O)NO)CCN(C(=O)N(CC)CC)CC3)CC2)cc1` [Example 242]: the inhibitory constant (Ki) is greater than 10000 nM in assay [1] and 0.331 nM in assay [2].

Turning to `CCCCOc1ccc(N2CCN(S(=O)(=O)C3(C(=O)NO)CCN(C(=O)N4CCCCC4)CC3)CC2)cc1` [Example 243], the Ki in assay [1] is greater than 10000 nM; in assay [2] it was 0.24 nM.

As to `CCCCOc1ccc(N2CCN(S(=O)(=O)C3(C(=O)NO)CCN(C(=O)N(C(C)C)C(C)C)CC3)CC2)cc1` [Example 244], the values for the Ki in assay [1] and in assay [2] were greater than 10000 nM and 0.57 nM, respectively.

On to `CCCCOc1ccc(N2CCN(S(=O)(=O)C3(C(=O)NO)CCN(Cc4nccn4C)CC3)CC2)cc1` [Example 245], for which the results for the Ki in assay [1] and in assay [2] were greater than 10000 nM and 0.177 nM, respectively.

With `CCCCOc1ccc(N2CCN(S(=O)(=O)C3(C(=O)NO)CCN(Cc4ccc(C)o4)CC3)CC2)cc1` [Example 246], the values for the Ki in assay [1] and in assay [2] were greater than 10000 nM and 0.396 nM, respectively.

In the case of `CCCCOc1ccc(N2CCN(S(=O)(=O)C3(C(=O)NO)CCN(Cc4ncc[nH]4)CC3)CC2)cc1` [Example 247], the Ki was greater than 10000 nM in assay [1] and 0.166 nM in assay [2].

In the case of `CCCCOc1ccc(N2CCN(S(=O)(=O)C3(C(=O)NO)CCN(c4ccc(OC)cc4)CC3)CC2)cc1` [Example 249], the Ki in assay [1] was greater than 10000 nM; in assay [2], 2.46 nM.
